Assay results published in the supplement of paper PMC12317010.
Counter-ions that a name gives are not always drawn.

Test: collision cross section in nitrogen (drift tube, single-field); higher = larger gas-phase ion size
[1] = ion type: [M+H], ion source: APCI, ion mode: Positive
[2] = ion type: [M+H], ion source: ESI, ion mode: Positive
[3] = ion type: [M-H], ion source: ESI, ion mode: Negative
[4] = ion type: [M+Na], ion source: ESI, ion mode: Positive
[5] = ion type: [M+], ion source: APCI, ion mode: Positive
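Note: chemical standards at 10 µM analysed by drift tube IMS-QTOF MS in about 3.95 torr nitrogen, mean of duplicate injections differing ≤1%, mass error below 10 ppm.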

| Compound | collision cross section in nitrogen [1] | collision cross section in nitrogen [2] | collision cross section in nitrogen [3] | further results |
| --- | --- | --- | --- | --- |
| CSc1ccc(C(=O)C(C)(C)N2CCOCC2)cc1 [2-Methyl-4'-(methylthio)-2-morpholinopropiophenone] | 166.4 Å² | 166.7 Å² | – | – |
| CCCCCCCCSCc1cc(C)c(O)c(CSCCCCCCCC)c1 [2-Methyl-4,6-bis[(octylthio)methyl]phenol] | – | – | 208 Å² | – |
| Cc1ccc2c(c1)C(=O)c1ccccc1C2=O [2-Methylanthraquinone] | – | – | 145.3 Å² | – |
| Cc1ccccc1S(=O)(=O)O [2-Methylbenzenesulfonic acid] | – | – | 131.9 Å² | – |
| Cc1ncc[nH]1 [2-Methylimidazole] | – | – | 112.8 Å² | – |
| Cc1ccc2ccccc2n1 [2-Methylquinoline] | 125.2 Å² | 126.2 Å² | – | – |
| CCCCCCCCCCCCCC(=O)OC(CO)CO [2-Myristoyl glycerol] | – | – | – | collision cross section in nitrogen [4]: 183.7 Å² |
| Oc1ccc2ccccc2c1 [2-Naphthalenol] | – | – | 128.7 Å² | – |
| O=C(O)COc1ccc2ccccc2c1 [2-Naphthoxyacetic acid] | – | – | 151.2 Å² | – |
| Nc1ccccc1[N+](=O)[O-] [2-Nitrobenzenamine] | – | – | 121.6 Å² | – |
| O=[N+]([O-])c1ccc2c(c1)Cc1ccccc1-2 [2-Nitrofluorene] | – | – | 141.1 Å² | – |
| O=[N+]([O-])c1ccccc1O [2-Nitrophenol] | – | – | 121.2 Å² | – |
| NC(=O)CN1CCCC1=O [2-Oxo-1-Pyrrolidineacetamide] | – | – | – | collision cross section in nitrogen [4]: 136.8 Å² |
| c1ccc(-c2nc3ccccc3[nH]2)cc1 [2-Phenylbenzimidazole] | 142.8 Å² | 143 Å² | 142.6 Å² | – |
| Oc1ccccc1-c1ccccc1 [2-Phenylphenol] | – | – | 136.4 Å² | – |
| CCCCOCCOCCOCCO [2-[2-(2-Butoxyethoxy)ethoxy]ethanol] | – | – | – | collision cross section in nitrogen [4]: 150.9 Å² |
| COCCOCCOCCO [2-[2-(2-Methoxyethoxy)ethoxy]ethanol] | – | – | – | collision cross section in nitrogen [4]: 135.6 Å² |

| Compound | collision cross section in nitrogen [1] | collision cross section in nitrogen [2] | collision cross section in nitrogen [3] | further results |
| --- | --- | --- | --- | --- |
| CCCOCCOCCOCCO [2-[2-(2-Propoxyethoxy)ethoxy]ethanol] | – | – | – | collision cross section in nitrogen [4]: 144.4 Å² |
| CCCCCCOCCOCCO [2-[2-(Hexyloxy)ethoxy]ethanol] | – | – | – | collision cross section in nitrogen [4]: 151.8 Å² |
| CCCCCCCCn1sccc1=O [2-n-Octyl-4-isothiazolin-3-one] | 158.3 Å² | 158 Å² | – | – |
| COc1ccc(O)c(C(C)(C)C)c1 [2-tert-Butyl-4-methoxyphenol] | – | – | 142.3 Å² | – |
| Cc1cc(-c2cc(C)c(N)c(C)c2)cc(C)c1N [3,3',5,5'-Tetramethylbenzidine] | 175.7 Å² | 176 Å² | – | collision cross section in nitrogen [5]: 162.4 Å² |
| N#CCCOCCOCCC#N [3,3'-(Ethylenedioxy)dipropiononitrile] | – | – | – | collision cross section in nitrogen [4]: 143 Å² |
| Nc1ccc(-c2ccc(N)c(Cl)c2)cc1Cl [3,3'-Dichlorobenzidine dihydrochloride] | – | 167.6 Å² | – | collision cross section in nitrogen [5]: 153.3 Å² |
| Cc1cc(-c2ccc(N)c(C)c2)ccc1N [3,3'-Dimethylbenzidine dihydrochloride] | 151.9 Å² | 166.2 Å² | – | collision cross section in nitrogen [5]: 150.7 Å² |
| Cc1cc(-c2ccc(N)c(C)c2)ccc1N [3,3'-Dimethylbenzidine] | 166.1 Å² | 166.5 Å² | – | collision cross section in nitrogen [5]: 150.8 Å² |
| Cc1cc(C(C)(C)c2ccc(O)c(C)c2)ccc1O [3,3'-Dimethylbisphenol A] | – | – | 172.9 Å² | – |
| Nc1cccc(S(=O)(=O)c2cccc(N)c2)c1 [3,3'-Sulphonyldianiline] | – | – | – | collision cross section in nitrogen [4]: 172.6 Å² |
| Cc1ccc(O)cc1C [3,4-Dimethylphenol] | – | – | 128.7 Å² | – |
| O=C1N=CC(Cl)=CC1Cl (stereo not given) [3,5-Dichloro-2-pyridone] | – | – | 123.4 Å² | – |
| C=COCCOCCOCCOC=C [3,6,9,12-Tetraoxatetradeca-1,13-diene] | – | – | – | collision cross section in nitrogen [4]: 143.4 Å² |
| NCc1cccnc1 [3-(Aminomethyl)pyridine] | 118.5 Å² | 119.6 Å² | – | – |
| ClCc1cccnc1 [3-(Chloromethyl)pyridine hydrochloride] | 123.8 Å² | – | – | – |

Second part, led by results:

| collision cross section in nitrogen [1] | collision cross section in nitrogen [2] | collision cross section in nitrogen [3] | Compound | further results |
| --- | --- | --- | --- | --- |
| 125.7 Å² | 126.6 Å² | – | OCCC1CCCCN1 (stereo not given) [2-Piperidineethanol] | – |
| – | – | 119.1 Å² | C=CCS(=O)(=O)O [2-Propene-1-sulfonic acid, sodium salt] | – |
| – | – | 129.6 Å² | CCCc1ccccc1O [2-Propylphenol] | – |
| 177.2 Å² | 177.1 Å² | 179.8 Å² | CCN(CC)c1ccc(C(=O)c2ccccc2C(=O)O)c(O)c1 [2-[4-(Diethylamino)-2-hydroxybenzoyl]benzoic acid] | collision cross section in nitrogen [4]: 187.1 Å² |
| 138.5 Å² | 138.3 Å² | – | CN(C)CCOCCN(C)CCO [2-[{2-[2-(Dimethylamino)ethoxy]ethyl}(methyl)amino]ethanol] | collision cross section in nitrogen [4]: 144 Å² |
| – | – | 144.6 Å² | CCc1ccc(O)c(C(C)(C)C)c1 [2-tert-Butyl-4-ethylphenol] | – |
| – | – | 138.7 Å² | Cc1ccc(C(C)(C)C)c(O)c1 [2-tert-Butyl-5-methylphenol] | – |
| – | – | 138.2 Å² | Cc1cccc(C(C)(C)C)c1O [2-tert-Butyl-6-methylphenol] | – |
| 137.3 Å² | 137.2 Å² | – | COc1ccc(NC(C)=O)cc1N [3'-Amino-4'-methoxyacetanilide] | – |
| – | – | 159.9 Å² | Cc1cn([C@H]2C[C@H](N=[N+]=[N-])[C@@H](CO)O2)c(=O)[nH]c1=O [3'-Azido-3'-deoxythymidine] | – |
| – | – | 193.4 Å² | CC(C)(c1cc(Br)c(O)c(Br)c1)c1cc(Br)c(O)c(Br)c1 [3,3',5,5'-Tetrabromobisphenol A] | – |
| – | 162.7 Å² | 165.1 Å² | Cc1ccc(NC(=O)N(C)C)cc1NC(=O)N(C)C [3,3'-(4-Methylbenzene-1,3-diyl)bis(1,1-dimethylurea)] | collision cross section in nitrogen [4]: 167.6 Å² |
| 147.9 Å² | 148.3 Å² | – | NCCCOCCOCCOCCCN [3,3'-[Oxybis(ethane-2,1-diyloxy)]dipropan-1-amine] | collision cross section in nitrogen [4]: 150.3 Å² |
| 159.9 Å² | – | – | Nc1ccc(Oc2ccc(N)c(N)c2)cc1 [3,4,4'-Triaminodiphenyl ether] | – |
| – | 142.6 Å² | – | N#Cc1nc(Cl)c(Cl)c(Cl)c1Cl [3,4,5,6-Tetrachloropyridine-2-carbonitrile] | – |
| – | – | 127.6 Å² | O=C1CCc2ccccc2O1 [3,4-Dihydrocoumarin] | – |

| collision cross section in nitrogen [1] | collision cross section in nitrogen [2] | collision cross section in nitrogen [3] | Compound | further results |
| --- | --- | --- | --- | --- |
| – | 205.3 Å² | 198.1 Å² | N[C@@H](Cc1cc(I)c(Oc2ccc(O)c(I)c2)c(I)c1)C(=O)O [3,5,3'-Triiodothyronine] | – |
| – | 204.8 Å² | 198.1 Å² | N[C@@H](Cc1cc(I)c(Oc2ccc(O)c(I)c2)c(I)c1)C(=O)O [3,5,3′-Triiodo-L-thyronine monosodium salt] | – |
| – | – | 136.6 Å² | Nc1cc(N)cc(C(=O)O)c1 [3,5-Diaminobenzoic acid] | – |
| – | – | 136.4 Å² | O=C(O)c1cc(Br)c(O)c(Br)c1 [3,5-Dibromo-4-hydroxybenzoic acid] | – |
| – | – | 130.7 Å² | O=C(O)c1cc(Cl)cc(Cl)c1O [3,5-Dichlorosalicylic acid] | – |
| 163.4 Å² | – | – | CCCC1C(CC)=CC(CC)=CN1c1ccccc1 (stereo not given) [3,5-Diethyl-1-phenyl-2-propyl-1,2-dihydropyridine] | – |
| – | – | 127.3 Å² | Cc1cc(C)cc(O)c1 [3,5-Dimethylphenol] | – |
| 151.8 Å² | – | – | COCCOCCOCCOCCOCCO [3,6,9,12,15-Pentaoxahexadecanol] | collision cross section in nitrogen [4]: 153.3 Å² |
| 157.1 Å² | – | – | CCCCOCCOCCOCCOCCO [3,6,9,12-Tetraoxahexadecan-1-ol] | collision cross section in nitrogen [4]: 160.4 Å² |
| – | 160.9 Å² | – | CC(=O)CCCCn1c(=O)c2c(ncn2C)n(C)c1=O [3,7-Dihydro-3,7-dimethyl-1-(5-oxohexyl)-1H-Purine-2,6-dione] | collision cross section in nitrogen [4]: 172 Å² |
| – | – | 154.8 Å² | CCC(C)(CCCC(C)C)OC(C)=O (stereo not given) [3,7-Dimethyloctan-3-yl acetate] | – |
| 128 Å² | 128.4 Å² | – | OCCCc1cccnc1 [3-(3-Pyridyl)-1-propanol] | – |
| – | 161.1 Å² | 175.5 Å² | CCN(Cc1cccc(S(=O)(=O)O)c1)c1ccccc1 [3-((Ethylphenylamino)methyl)benzenesulfonic acid] | collision cross section in nitrogen [4]: 174.9 Å² |
| – | – | 170.1 Å² | CCCCCCCCCCC=CC1CC(=O)OC1=O (stereo not given) [3-(Dodecenyl)dihydro-2,5-furandione] | – |
| 144.7 Å² | 144.3 Å² | – | CCN(CCC#N)c1cccc(C)c1 [3-(Ethyl(3-methylphenyl)amino)propanenitrile] | collision cross section in nitrogen [5]: 143.6 Å² |
| 156.9 Å² | 156.2 Å² | – | CCCCCCCCOCCCN [3-(Octyloxy)propan-1-amine] | – |
